Consider eight molecules from patent US10669245B2, “Certain (2S)-N-[(1S)-1-cyano-2-phenylethyl]-1,4-oxazepane-2-carboxamides dipeptidyl peptidase 1 inhibitors” (AstraZeneca AB, priority 2014, dated 2020).

The nature of data set [1]: Test B: In-Vitro Competitive Aortic Tissue Binding Assay. More on the design: species or system Han Wistar rats. The settings on record: 100 μM compound, competition with [14C]-labelled WO2010/128324 Ex. 3 in rat aortic homogenate; four categories. As for the experimental part: To assist the design of DPP1 inhibitors with a decreased risk of binding to elastin rich tissues, such as the aorta, the in-vitro competitive aortic binding assay disclosed below (Test B) was developed to facilitate the selection process.
Test B: In-Vitro Competitive Aortic Tissue Binding Assay
Aortic homogenate was prepared from the thoracic aortae of Han Wistar rats. Freshly isolated to thoracic aortae were frozen, and later thawed and stripped of non-elastic material. […] Homogenate concentration was adjusted to 30 mg/mL in Puck's saline, and aliquots were stored at −80° C. until use. Positive and negative control compounds and test compounds were made up to 100 mM in DMSO, and added to 1 mL aliquots of aortic homogenate in Puck's saline for a final concentration of 100 μM. Homogenate samples were pre-incubated with test compounds at 37° C., rotating, overnight. [^14C]4-Amino-N-[(1S)-1-cyano-2-(4′-cyanobiphenyl-4-yl)ethyl]tetrahydro-2H-pyran-4-carboxamide was then added to all samples to a final concentration of 100 μM, and samples were incubated at 37° C., rotating, for a further 2 h. Protein was precipitated from each sample by the addition of 10 mL acetone, pre-chilled to −20° C. Samples were left overnight at −20° C. to allow complete precipitation. Precipitate was pelleted by centrifugation at 4,500×g at 4° C. for 20 min, an aliquot of supernatant was removed for analysis, and the remainder of the supernatant discarded. Precipitate was washed by resuspension in 10 mL 80% methanol in distilled water, and re-pelleted by centrifugation at 4,500×g at 4° C. for 20 min. […] After final wash, precipitate was air-dried, and dissolved overnight in 1 mL NCSII Tissue Solubiliser. 1 mL aliquots of supernatants were added to 5 mL Ultima Gold scintillation fluid (Perkin Elmer, Mass., U.S.A.), and 1 mL solubilised pellets were added to 5 mL Hionic-Fluor scintillation fluid (Perkin Elmer, Mass., U.S.A.). Radioactivity of samples was determined on a Beckman LS6500 multipurpose scintillation counter (Beckman Coulter, Ind., U.S.A.). […] Duplicate samples were tested for each compound on each experimental occasion, and at least two experiments were run for each test compound. […] 1-way ANOVA and Bonferroni's multiple comparison tests were performed to calculate significance of differences from vehicle control.

Data set [2] addresses Recombinant Human (RH) DPP1 (Homo sapiens (Human), UniProt P53634). In words: Test A1: Fluorescence Assay for Recombinant Human (RH) DPP1. Format: biochemical. The settings on record: Test A1, rhDPP1, H-Gly-Arg-AMC substrate (Examples 1-35). As for the experimental part:
Test A1: Fluorescence Assay for Recombinant Human (RH) DPP1
The activity of DPP1 was determined by measuring the enzymatic release of aminomethyl coumarin (AMC) from the peptide substrate (H-Gly-Arg-AMC), which leads to an increase in fluorescence intensity at λex=350 nm and λem=450 nm. The assay was carried out in black 384 well plates in a final volume of 50 μl at 22° C. The assay conditions contained the following: 25 mM piperazine buffer pH 5.0; 50 mM NaCl, 5 mM DTT; 0.01% (v/v) Triton X-100; 100 μM H-Gly-Arg-AMC and rhDPP1 (˜50 pM). […] Routinely, inhibitors were pre-incubated with rhDPP1 for 30-60 min prior to the addition of the peptide substrate to start the reaction for a further 60 min at 22° C.

Data set [3] in a line: rat quantitative whole-body autoradiography (QWBA) studies. In kind it is in vivo.
The conditions of data set [4]: described in literature (Schmidt et al. 1984); cited from earlier work.

Recombinant Human (RH) DPP1, sequence (P53634 231-394): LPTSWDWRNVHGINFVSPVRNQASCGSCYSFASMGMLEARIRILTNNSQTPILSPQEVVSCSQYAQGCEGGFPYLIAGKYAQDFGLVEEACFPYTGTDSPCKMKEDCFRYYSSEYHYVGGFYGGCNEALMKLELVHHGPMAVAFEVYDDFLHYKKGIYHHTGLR
Recombinant Human (RH) DPP1, sequence (P53634 25-143): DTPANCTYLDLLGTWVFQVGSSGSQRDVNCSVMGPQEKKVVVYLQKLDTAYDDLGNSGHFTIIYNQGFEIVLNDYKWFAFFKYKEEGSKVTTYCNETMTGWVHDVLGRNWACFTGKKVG
Recombinant Human (RH) DPP1, sequence (P53634 395-463): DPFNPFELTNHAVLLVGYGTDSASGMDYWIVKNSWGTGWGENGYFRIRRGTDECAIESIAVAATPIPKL

On to `Cn1c(=O)oc2ccc(-c3ccc(C[C@@H](C#N)NC(=O)[C@@H]4CNCCCO4)cc3)cc21` [Example 2, (2S)—N-{(1S)-1-Cyano-2-[4-(3-methyl-2-oxo-2,3-dihydro-1,3-benzoxazol-5-yl)phenyl]ethyl}-1,4-oxazepane-2-carboxamide], for which the “Aortic Tissue Binding” value in data set [1] is on record as “No binder”.

Regarding `N#C[C@H](Cc1ccc(-c2ccc(C(N)=O)c(F)c2)cc1)NC(=O)[C@@H]1CNCCCO1` [Example 23, (2S)-N-[(1S)-2-(4′-Carbamoyl-3′-fluorobiphenyl-4-yl)-1-cyanoethyl]-1,4-oxazepane-2-carboxamide], the “DPP1 activity, pIC50” value in data set [2] amounted to 7.17.

Take `CS(=O)(=O)c1ccc(-c2ccc(C[C@@H](C#N)NC(=O)[C@@H]3CNCCCO3)cc2)cc1` [Example 30, (2S)-N-{(1S)-1-Cyano-2-[4′-(methylsulfonyl)biphenyl-4-yl]ethyl}-1,4-oxazepane-2-carboxamide]: the “DPP1 activity, pIC50” value in data set [2] worked out at 7.43. Regarding `N#Cc1ccc(-c2ccc(C[C@@H](C#N)NC(=O)[C@@H]3CCCCN3)cc2)cc1` [WO2009/074829 (Example 24)], the “Aortic Tissue Binding” value in data set [1] is given as “Binder”.

As to `Cn1c(=O)oc2ccc(-c3ccc(C[C@@H](C#N)NC(=O)[C@@H]4CCCCN4)cc3)cc21` [WO2009/074829 (Example 96)], the “Aortic Tissue Binding” value in data set [1] is recorded as “Medium binder”. Regarding `N#Cc1ccc(-c2ccc(C[C@@H](C#N)NC(=O)C3(N)CCOCC3)cc2)cc1` [WO2010/128324 (Ex. 3), 4-amino-N-[(1S)-1-cyano-2-(4′-cyanobiphenyl-4-yl)ethyl]tetrahydro-2H-pyran-4-carboxamide], the “Aortic Tissue Binding” value in data set [1] is “Strong binder (reference)”. In addition, the “aortic retention in QWBA” value in data set [3] is “high level of aortic retention”. Consider `Cn1c(=O)oc2ccc(-c3ccc(C[C@@H](C#N)NC(=O)C4(N)CCOCC4)cc3)cc21` [WO2010/128324 (Example 17)], for which the “Aortic Tissue Binding” value in data set [1] is reported as “Strong binder”. For `CC(c1ccc(Cl)c(Cl)c1)N1N=C(N)CC1=O` (stereo not drawn) [muzolimine], the “retention in the aorta in QWBA” value in data set [4] is on record as “retained selectively in the aorta”.
